pIC50, pKi: −log10 of the molar value. Where two headings read alike, the source gives them in different places. Marks after values point to notes of the source that are not given here.
Assays:
human CB1R = biological target: T1, human CB1R (Homo sapiens, UniProt P21554); experiment: cell-based; conditions: CHO cells expressing human CB1R
T1 construct: expressed in transfected cells; host or cells: CHO cells

mouse CB2 receptor = biological target: T2, mouse CB2 receptor (Mus musculus, UniProt P47936); experiment: Binding inhibitory activity to mouse cannabinoid receptors, spleen membrane fraction; set-up: species or system C57BL/6 J mice; conditions: mouse spleen membrane fraction; read-out: Binding Assay: Ki Spleen (CB2)
T2 construct: The membrane fractions of mouse brain and spleen that abundantly express CB1 and CB2 receptor, respectively; from tissue; host or cells: mouse spleen membrane fraction (C57BL/6 J)

[1] = test system: compound 48/80-induced pruritus; experiment: Inhibitory effect on compound 48/80-induced pruritus in ICR strain mice; conditions: for Antipruritic Effect (%): ICR mice, compound 48/80-induced scratching
human CB2R = biological target: T3, human CB2R (Homo sapiens, UniProt P34972); experiment: Cannabinoid receptor-mediated suppression of forskolin-stimulated cAMP synthesis, CB2R; type: cell-based
T3 construct: expressed in transfected cells; host or cells: CHO cells

mouse CB1 receptor = biological target: T4, mouse CB1 receptor (Mus musculus, UniProt P47746); experiment: Binding inhibitory activity to mouse cannabinoid receptors, brain membrane fraction; set-up: species or system C57BL/6 J mice; conditions: mouse brain membrane fraction; read-out: Binding Assay: Ki Brain (CB1)
T4 construct: The membrane fractions of mouse brain and spleen that abundantly express CB1 and CB2 receptor, respectively; from tissue; host or cells: mouse brain membrane fraction (C57BL/6 J)

[2] = biological target: T5, Human cannabinoid receptor CB1R (Homo sapiens, UniProt P21554); experiment: Human cannabinoid receptor binding inhibition, [3H]CP55940, CB1R; conditions: membranes of CB1R-expressing CHO cells, [3H]CP55940 0.5 nM; read-out: Ki CB1 receptor
T5 construct: expressed in transfected cells; host or cells: CHO cells
Method: (§1) The crude membrane fractions as Human cannabinoid receptor were then prepared from the CB1R or CB2R-expressing CHO cells. Receptor binding assay was performed by incubating the membranes with each test compound and 38,000 dpm [^3H]CP55940 (at a final concentration of 0.5 nM: NEN Life Science Products) in the assay buffer (50 mM Tris-HCl; 1 mM EDTA, 3 mM MgCl2, pH 7.4) containing 0.5% bovine serum albumin (BSA) for 2 hr at 25° C. The incubation mixture was filtered through 1% polyethylenimine (PEI)-treated GF/C glass filter and washed with 50 mM Tris-HCl (pH 7.4) containing 0.1% BSA. The radioactivity was then counted with a liquid scintillation counter. […] Ki value of test compound is calculated by obtained IC50 value and Kd value of [^3H]CP55940.

[3] = biological target: T6, Human cannabinoid receptor CB2R (Homo sapiens, UniProt P34972); experiment: Human cannabinoid receptor binding inhibition, [3H]CP55940, CB2R; conditions: membranes of CB2R-expressing CHO cells, [3H]CP55940 0.5 nM; read-out: Ki CB2 receptor
T6 construct: expressed in transfected cells; host or cells: CHO cells
Method: as §1

[4] = forskolin-stimulated cAMP synthesis, read-out: CB1 receptor IC50
[5] = CHO cells expressing human CB2R, forskolin-stimulated cAMP synthesis, read-out: CB2 receptor IC50

T2 sequence (P47936 whole entry): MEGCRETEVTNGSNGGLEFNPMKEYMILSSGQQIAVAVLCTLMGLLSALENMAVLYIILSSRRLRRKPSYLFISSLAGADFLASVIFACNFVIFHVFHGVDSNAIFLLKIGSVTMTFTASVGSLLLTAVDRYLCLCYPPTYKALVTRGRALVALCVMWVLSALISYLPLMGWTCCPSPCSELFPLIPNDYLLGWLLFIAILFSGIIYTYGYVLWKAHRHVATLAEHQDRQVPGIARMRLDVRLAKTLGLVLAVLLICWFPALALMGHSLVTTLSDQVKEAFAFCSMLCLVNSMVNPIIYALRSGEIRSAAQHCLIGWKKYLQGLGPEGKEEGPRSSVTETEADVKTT
T1 sequence (P21554 whole entry): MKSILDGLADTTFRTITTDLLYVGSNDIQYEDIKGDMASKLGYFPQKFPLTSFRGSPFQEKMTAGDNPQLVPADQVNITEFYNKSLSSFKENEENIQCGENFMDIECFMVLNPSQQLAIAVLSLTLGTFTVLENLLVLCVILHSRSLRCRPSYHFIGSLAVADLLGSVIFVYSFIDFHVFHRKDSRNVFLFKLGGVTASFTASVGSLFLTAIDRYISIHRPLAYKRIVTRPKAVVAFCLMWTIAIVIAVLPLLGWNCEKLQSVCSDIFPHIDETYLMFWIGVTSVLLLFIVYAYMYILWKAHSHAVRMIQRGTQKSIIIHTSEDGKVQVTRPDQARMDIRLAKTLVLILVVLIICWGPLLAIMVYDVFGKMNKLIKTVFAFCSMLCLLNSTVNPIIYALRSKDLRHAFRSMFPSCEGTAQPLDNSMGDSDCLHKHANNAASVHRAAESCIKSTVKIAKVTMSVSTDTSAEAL
T5 sequence (P21554 whole entry): as above
T3 sequence (P34972 whole entry): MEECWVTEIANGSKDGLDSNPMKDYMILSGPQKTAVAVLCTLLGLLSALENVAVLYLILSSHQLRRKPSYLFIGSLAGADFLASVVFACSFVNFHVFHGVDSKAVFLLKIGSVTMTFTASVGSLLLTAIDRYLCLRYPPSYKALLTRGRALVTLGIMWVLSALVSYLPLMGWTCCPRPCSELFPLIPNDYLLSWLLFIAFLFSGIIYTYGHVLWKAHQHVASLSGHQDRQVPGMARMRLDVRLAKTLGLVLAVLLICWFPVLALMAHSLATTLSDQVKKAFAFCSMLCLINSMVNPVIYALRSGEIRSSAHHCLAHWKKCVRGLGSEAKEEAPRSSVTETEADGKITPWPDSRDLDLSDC
T6 sequence (P34972 whole entry): as above
T4 sequence (P47746 whole entry): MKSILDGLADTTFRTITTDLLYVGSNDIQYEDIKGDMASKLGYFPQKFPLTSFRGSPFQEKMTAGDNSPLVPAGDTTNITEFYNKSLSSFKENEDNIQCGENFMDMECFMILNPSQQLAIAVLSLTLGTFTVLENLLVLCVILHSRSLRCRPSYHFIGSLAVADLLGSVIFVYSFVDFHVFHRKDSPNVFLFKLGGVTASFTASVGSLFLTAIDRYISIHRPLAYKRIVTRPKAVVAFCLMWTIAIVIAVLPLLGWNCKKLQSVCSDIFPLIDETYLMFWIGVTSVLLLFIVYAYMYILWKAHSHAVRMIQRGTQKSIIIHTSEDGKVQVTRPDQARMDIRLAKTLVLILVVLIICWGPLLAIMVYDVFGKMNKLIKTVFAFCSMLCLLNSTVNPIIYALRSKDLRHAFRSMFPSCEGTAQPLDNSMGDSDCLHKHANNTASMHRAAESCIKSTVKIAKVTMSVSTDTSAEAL

Compound: CCc1ccccc1N=C1SCC(C)(C)CN1C(=S)SC [Compound I-56]
- melting point: 107 to 109 °C

Compound: CCC(C)CNC(=O)c1cc(C)c(C)n(CC2CCCCC2)c1=O (centres unmarked) [Compound 11-012]
- pIC50 (human CB1R; [4]): 8.11

Compound: CCCCCc1cc(O)c2c(c1)OC(C)(C)[C@@H]1CCC(C)=C[C@@H]21 [Δ^9-tetrahydrocannabinol, delta-9-tetrahydrocannabinol, reference compound]
- pKi (mouse CB2 receptor): 8.04
- Antipruritic Effect (%) ([1]; 10 mg/kg (i.p.)): 98**# %
- inhibitory effect on compound 48/80-induced pruritus (number of scratching vs vehicle group) ([1]; female ICR mice, oral administration once, scratching counted for 30 min): inhibited compound 48/80-induced pruritus

Compound: CSC(=O)N1CC(C)(C)CSC1=Nc1cccc(C(C)C)c1 [Compound I-52]
- melting point: 88 to 90 °C

Compound: Cc1cc(C(=O)NCC(C)(C)C)c(=O)n(CC2CCCCC2)c1C [Compound 11-013]
- pIC50 (human CB1R; [4]): 8.12

Compound: CCCCn1c2c(cc(C(=O)N[C@H](C)C3CCCCC3)c1=O)CCCCCC2 [Compound 10-050]
- pIC50 (human CB1R; [4]): 8.70

Compound: Cc1c(C(=O)c2cccc3ccccc23)c2cccc3c2n1[C@H](CN1CCOCC1)CO3 [WIN55212-2, reference compound]
- pKi (mouse CB2 receptor): 8.22
- Antipruritic Effect (%) ([1]; 100 mg/kg (p.o.)): 70* %

Compound: CCCCn1c2c(cc(C(=O)NC3CCCCC3)c1=O)CCCCCC2 [Compound 10-035]
- pIC50 (human CB1R; read-out: cAMP Inhibition: IC50 CB1): 7.54
- pIC50 (human CB2R; CHO cells expressing human CB2R, read-out: cAMP Inhibition: IC50 CB2): 9.70
- pKi (mouse CB1 receptor): 7.92
- pKi (mouse CB2 receptor): 10.00
- Antipruritic Effect (%) ([1]; 100 mg/kg (p.o.)): 93** %

Compound: C=CCSC(=S)N1CC2(CCCCC2)CSC1=Nc1ccc(CC)cc1 [II-88]
- melting point: 98 to 100 °C

Compound: Cc1cc(C(=O)NC2CCCc3ccccc32)c(=O)n(CC2CCCCC2)c1C (centres unmarked) [Compound 11-011]
- pIC50 (human CB1R; [4]): 9.22

Compound: CCCCn1c2c(cc(C(=O)NCCc3ccccc3)c1=O)CCCC2 [Compound 4-002, 1-butyl-2-oxo-1,2,5,6,7,8-hexahydroquinoline-3-carboxylic acid phenethylamide]
- pKi [2]: 6.13
- pKi [3]: 7.77

Compound: CCCCn1c2c(cc(C(=O)N[C@H](CF)c3ccccc3)c1=O)CCCCCC2 [Compound 10-089]
- pIC50 (human CB1R; [4]): 8.03

Compound: CSC(=O)N1CC(C)(C)CSC1=Nc1ccccc1C(C)C [Compound I-50]
- melting point: 95 to 96 °C

Compound: O=C(NCc1ccccc1)c1cc2c(n(Cc3ccncc3)c1=O)CCCCCC2 [Compound 4-310]
- pKi [2]: 6.29
- pKi [3]: 8.05

Compound: CCn1c(C)c(C)cc(C(=O)NCc2ccccc2)c1=O
- melting point: 117 °C

Compound: COCCn1c2c(cc(C(=O)NCCc3ccccc3)c1=O)CCCCCC2 [Compound 4-302]
- pKi [2]: < 5.30
- pKi [3]: 8.00

Compound: CCCCn1c2c(cc(NC(=O)c3ccccc3Cl)c1=O)CCCCCC2 [Compound 13-006]
- pIC50 (human CB1R; [4]): 8.80

Compound: CC(C)OC(=O)CSC(=S)N1CC(C)(C)CSC1=Nc1ccccc1C(C)C [II-13]
- melting point: 95 to 96 °C

Compound: Cc1c(C)c(C)n(CC2CCCCC2)c(=O)c1C(=O)NCc1ccccc1 [Compound 3-109]
- pIC50 (human CB1R; [4]): 8.57

Compound: CCCCn1c2c(cc(C(=O)NC(C)(C)c3ccccc3)c1=O)COCC2 [Compound 13-044]
- pIC50 (human CB1R; [4]): 8.74

Compound: CCCCn1c2c(cc(C(=O)NC(C)(C)c3ccccc3)c1=O)[C@@H]1CC[C@H]2C1 [Compound 13-023]
- pIC50 (human CB1R; [4]): 9.52

Compound: COc1ccccc1N=C1SCC(C)(C)CN1C(=S)SC [Compound I-60]
- melting point: 128 to 130 °C

Compound: CCCCn1c(C)c(C)cc(NC(=O)c2ccc(F)cc2)c1=O
- melting point: 129 to 130 °C

Compound: CCCCn1c2c(cc(C(=O)NC(=O)c3c(F)cccc3F)c1=O)CCCCCC2 [Compound 10-045]
- pIC50 (human CB1R; [4]): 8.92

Compound: CCCCn1c2c(cc(C(=O)NCCc3ccccc3)c1=O)CCCCCC2 [Compound 4-102]
- pKi [2]: 6.04
- pKi [3]: 8.80
- pIC50 (human CB2R): 8.77

Compound: COCC(=O)N1CC(C)(C)CSC1=Nc1ccccc1C(C)C [Compound I-93]
- pIC50 (human CB2R; [5]): 9.22
- melting point: 76 to 78 °C

Compound: Cc1ccc(Oc2nc3ccccc3o2)c(=S)n1C
- melting point: 245 to 247 °C

Compound: CCCCn1c2c(cc(C(=O)NCCc3ccccc3)c1=O)CCC2 [Compound 4-052]
- pKi [2]: 5.82
- pKi [3]: 7.62

Compound: CCCCn1c2c(cc(C(=O)Nc3ccccc3C(F)(F)F)c1=O)CCCCCC2 [Compound 10-103]
- pIC50 (human CB1R; [4]): 8.20

Compound: CCSC(=O)N1CC(C)(C)CSC1=Nc1ccc(C)cc1C [Compound I-39]
- pIC50 (human CB2R; [5]): 7.86

— patent US20080312292A1, “Antipruritics” (priority 2002, published 2008)
